Results from US10610125B2, “Methods and compositions for cell-proliferation-related disorders” (Agios Pharmaceuticals, Inc., priority 2009, dated 2020).
Several values for one entry are separate records, joined by “and”; a condition that tells them apart may be missing. Equal entries are not always repeated. Where two headings read alike, the source gives them in different places.

Columns and labels:
Format in all cases: biochemical
IDH1 wt [1] = biological target: T1, IDH1 wt (Homo sapiens (Human), UniProt O75874); experiment: IDH1 wt assay for inhibitor selectivity (1×Km of NADPH); settings: 1x Km NADPH; for IC50: read-out: IDH1wt IC50 @ 1x Km
T1 sequence (O75874 whole entry): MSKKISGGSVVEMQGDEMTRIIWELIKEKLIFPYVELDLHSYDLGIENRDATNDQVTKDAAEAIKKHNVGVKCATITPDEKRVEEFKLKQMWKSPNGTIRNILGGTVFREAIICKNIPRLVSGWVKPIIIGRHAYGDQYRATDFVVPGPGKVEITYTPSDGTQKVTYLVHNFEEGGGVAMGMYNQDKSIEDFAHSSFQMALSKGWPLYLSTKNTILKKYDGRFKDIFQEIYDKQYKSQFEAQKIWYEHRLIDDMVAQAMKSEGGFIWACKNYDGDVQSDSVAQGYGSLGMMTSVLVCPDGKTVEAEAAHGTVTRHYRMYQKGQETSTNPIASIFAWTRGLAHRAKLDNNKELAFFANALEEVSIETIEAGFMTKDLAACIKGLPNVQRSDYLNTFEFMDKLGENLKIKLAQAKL
Source text: (§1) The selectivity between wild type vs mutant could be >20-fold.

ICDH1 R132H = ICDH1 R132H (Homo sapiens (Human), UniProt O75874, R132H); experiment: IDH1 R132H inhibition assay (NADPH/aKG, resazurin to resorufin fluorescence); settings: for IC50 Ratio (40/4): ratio of IC50 at 40 uM to 4 uM NADPH; for IC50: IDH1 R132H
ICDH1 R132H, sequence (O75874 whole entry R132H): as the sequence (O75874 whole entry) above, with R132H counted along it
Method: Assays were conducted in a volume of 76 ul assay buffer (150 mM NaCl, 10 mM MgCl2, 20 mM Tris pH 7.5, 0.03% bovine serum albumin) as follows in a standard 384-well plate: To 25 ul of substrate mix ([…], 2 mM aKG), 1 ul of test compound was added in DMSO. […] The reaction was incubated for 50 minutes at room temperature, then 25 ul of detection mix (30 uM resazurin, […]) was added and the mixture further incubated for 5 minutes at room temperature. The conversion of resazurin to resorufin was detected by fluorescent spectroscopy at Ex544 Em590 c/o 590.
as §1

IDH1 wild-type = IDH1 wild-type (Homo sapiens (Human), UniProt O75874); experiment: Oxidative decarboxylation of isocitrate to α-KG by IDH1 wild-type (340 nm); settings: added in a titration series
IDH1 wild-type, sequence (O75874 whole entry): as the sequence (O75874 whole entry) above
Method: In these reactions, the substrate was varied while the cofactor was held constant at 500 uM. All reactions were performed in 150 mM NaCl, 20 mM Tris-Cl, pH 7.5, 10% glycerol, and 0.03% (w/v) BSA). Reaction progress was followed by spectroscopy at 340 nM monitoring the change in oxidation state of the cofactor. Sufficient enzyme was added to give a linear change in absorbance for 10 minutes.
A well-known regulatory mechanism for control of metabolic enzymes is feedback inhibition, in which the product of the reaction acts as a negative regulator for the generating enzyme.

IDH1 R132C = IDH1 R132C (Homo sapiens (Human), UniProt O75874, R132C); experiment: IDH1/2 activity assay, forward reaction (isocitrate, NADP+), stopped-flow, IDH1 R132C; settings: Oxidative (→ NADPH), read-out: KM,MgCl2
IDH1 R132C, sequence (O75874 whole entry R132C): as the sequence (O75874 whole entry) above, with R132C counted along it
Method: Enzymatic binding constants were determined using curve fitting algorithms to standard kinetic models with the Sigmaplot software package (Systat Software, San Jose, Calif.). For determination of kcat, enzyme was incubated with 5×Km of substrate and cofactor; consumption of NADPH or NADP was determined by a change in the OD340 over time. In both cases an extinction coefficient of 6200 M^−1 cm^−1 was used for NADPH.

IDH1 R132H = IDH1 R132H (Homo sapiens (Human), UniProt O75874, R132H); experiment: Reduction of alpha-ketoglutarate with NADH by IDH1 R132H; settings: R132H 60 ug/ml, NADH 0.5 mM
IDH1 R132H, sequence (O75874 whole entry R132H): as the sequence (O75874 whole entry) above, with R132H counted along it
Method: (§2) In order to evaluate the ability of the mutant enzymes to utilize NADH in the reduction of alpha-ketoglutarate, the following experiment was conducted.

IDH1 wt [2] = biological target: T1, IDH1 wt; experiment: Reduction of alpha-ketoglutarate with NADH by IDH1 wild type; settings: IDH1 wt 5 ug/ml, NADH 0.5 mM
Method: as §2

IDH1 R132S = IDH1 R132S (Homo sapiens (Human), UniProt O75874, R132S); experiment: Reduction of alpha-ketoglutarate with NADH by IDH1 R132S; settings: NADH 0.5 mM, alpha-Ketoglutarate 5 mM, R132S 30 ug/ml
IDH1 R132S, sequence (O75874 whole entry R132S): as the sequence (O75874 whole entry) above, with R132S counted along it
Method: as §2

[3] = read-out: ICDH IC50 (uM) @ 4 uM (10x Km) NADPH, 4 uM (10x Km) NADPH
[4] = read-out: ICDH IC50 (uM) @ 40 uM NADPH, 40 uM (100x Km) NADPH

SMILES	IC50 (IDH1 wt [1])	IC50 Ratio (40/4) (ICDH1 R132H)	IC50 (ICDH1 R132H; [3])	IC50 (ICDH1 R132H; [4])	other results
Cc1ccc(C2=NN(c3ccccc3)C(c3cn(CCC(=O)O)nc3-c3ccccc3)C2)cc1 (stereo not shown)	–	3.38	12.3 µM	41.4 µM	IDH1wt IC50 @ 1x Km (uM) (IDH1 wt [1]): NO inhibition
O=C(O)CC[C@@H](O)C(=O)O [(R)-2-hydroxyglutarate]	–	–	–	–	effect on oxidative decarboxylation of isocitrate by wild-type ICDH1 (IDH1 wild-type): did not show any effect
[Cl-].[Cl-].[Mg+2] [MgCl2]	–	–	–	–	Km (IDH1 R132C): 450 µM
NC(=O)C1=CN([C@@H]2O[C@H](COP(=O)(O)OP(=O)(O)OC[C@H]3O[C@@H](n4cnc5c(N)ncnc54)[C@H](O)[C@@H]3O)[C@@H](O)[C@H]2O)C=CC1 [NADH]	–	–	–	–	consumption of NADH in the presence of alpha-ketoglutarate (IDH1 R132H): no measurable consumption; consumption of NADH in the presence of alpha-ketoglutarate (IDH1 wt [2]): no measurable consumption; Consumption of NADH, Mean (IDH1 R132S): 0.709 Umol/min/mg; Consumption of NADH, individual runs (IDH1 R132S): 0.7183 Umol/min/mg and 0.6997 Umol/min/mg; Rate, consumption of NADH, Mean (IDH1 R132S): 0.001103 ΔA/sec; Rate, consumption of NADH, individual runs (IDH1 R132S): 0.001117 ΔA/sec and 0.001088 ΔA/sec

Now from value to compound, other results behind:

IC50 (IDH1 wt [1])	IC50 Ratio (40/4) (ICDH1 R132H)	IC50 (ICDH1 R132H; [3])	IC50 (ICDH1 R132H; [4])	SMILES	other results
16.2 µM	17.42	5.74 µM	> 100 µM	Cc1c(/C=C2\Sc3ccccc3C2=O)c(O)n2c(nc3ccccc32)c1C#N	–
19.2 µM	1.15	12.8 µM	14.7 µM	O=C1NC(=S)S/C1=C\c1cccc(OC(=O)c2cccc(F)c2)c1	–
46.8 µM	1.28	15 µM	19.2 µM	Cc1cc(C(=O)O)ccc1-c1ccc(/C=C2/NC(=O)N(Cc3ccc(Br)cc3)C2=O)o1	–
69.3 µM	1.39	23.8 µM	33.2 µM	O=C1NC(=S)S/C1=C/c1cccc(OCc2ccc([N+](=O)[O-])cc2)c1	–
